Data from PubChem BioAssay (NCI).
Values joined by “and” are separate entries in the source; they are usually repeats but may differ in a detail not shown here. Equal entries are not always repeated.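 48-hour exposure; five concentrations; linearly interpolated endpoints. GI50 is the concentration that inhibits growth by half. TGI denotes the concentration required for complete inhibition of growth.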

Experiments:
Assay in all cases: NCI tumour cell line growth inhibition, 48 h
CCRF-CEM leukemia = system: CCRF-CEM leukemia
HOP-92 NSCLC = system: HOP-92 NSCLC
SF-295 CNS = system: SF-295 CNS
NCI-H460 lung = system: NCI-H460 lung
MOLT-4 leukemia = system: MOLT-4 leukemia
786-0 renal = system: 786-0 renal
COLO 205 colon = system: COLO 205 colon
HT29 colon = system: HT29 colon
T-47D breast = system: T-47D breast
SF-539 CNS = system: SF-539 CNS

SMILES: O=C=Nc1ccc(Cc2ccc(N=C=O)cc2)cc1 (tested in a mixture with another compound)
- GI50 (CCRF-CEM leukemia): > 25 µg/mL
- TGI (CCRF-CEM leukemia): > 25 µg/mL
- GI50 (HOP-92 NSCLC): > 25 µg/mL
- TGI (HOP-92 NSCLC): > 25 µg/mL
- GI50 (SF-295 CNS): > 25 µg/mL
- TGI (SF-295 CNS): > 25 µg/mL
- GI50 (NCI-H460 lung): > 25 µg/mL
- TGI (NCI-H460 lung): > 25 µg/mL
- GI50 (MOLT-4 leukemia): 1.33 µg/mL
- TGI (MOLT-4 leukemia): > 25 µg/mL
- GI50 (786-0 renal): > 25 µg/mL
- TGI (786-0 renal): > 25 µg/mL
- GI50 (COLO 205 colon): > 25 µg/mL
- TGI (COLO 205 colon): > 25 µg/mL
- GI50 (HT29 colon): > 25 µg/mL
- TGI (HT29 colon): > 25 µg/mL
- GI50 (T-47D breast): > 25 µg/mL
- TGI (T-47D breast): > 25 µg/mL
- GI50 (SF-539 CNS): > 25 µg/mL
- TGI (SF-539 CNS): > 25 µg/mL

SMILES: O=C1Nc2ccccc2SC1C1SC(=S)N(Cc2ccccc2)C1=O (centres undefined)
- GI50 (CCRF-CEM leukemia): 1.76 µM
- TGI (CCRF-CEM leukemia): > 29.8 µM
- GI50 (HOP-92 NSCLC): 4.21 µM
- TGI (HOP-92 NSCLC): 24.7 µM
- GI50 (SF-295 CNS): 10.2 µM
- TGI (SF-295 CNS): 40.2 µM
- GI50 (NCI-H460 lung): 8.21 µM
- TGI (NCI-H460 lung): 29.8 µM
- GI50 (MOLT-4 leukemia): 3.57 µM
- TGI (MOLT-4 leukemia): > 36 µM
- GI50 (786-0 renal): 5.06 µM
- TGI (786-0 renal): 16.5 µM
- GI50 (COLO 205 colon): 3.38 µM
- TGI (COLO 205 colon): 17.8 µM
- GI50 (HT29 colon): 3.98 µM
- TGI (HT29 colon): 39.8 µM
- GI50 (T-47D breast): 0.815 µM
- TGI (T-47D breast): 21.1 µM
- GI50 (SF-539 CNS): 3.79 µM
- TGI (SF-539 CNS): 12.8 µM

SMILES: CC/C(=C(\c1ccc(O)cc1)c1ccc(OCCNC)cc1)c1ccccc1
- GI50 (CCRF-CEM leukemia): 2.96 µM and 2.56 µM and 2.75 µM
- TGI (CCRF-CEM leukemia): 11 µM and 8.6 µM and 7.58 µM
- TGI (HOP-92 NSCLC): 2.04 µM and 2.96 µM and 7.46 µM
- GI50 (SF-295 CNS): 1.72 µM and 1.84 µM and 1.94 µM
- TGI (SF-295 CNS): 3.48 µM and 3.55 µM and 4.09 µM
- GI50 (NCI-H460 lung): 1.98 µM and 1.83 µM and 1.89 µM
- TGI (NCI-H460 lung): 3.67 µM and 3.45 µM and 3.66 µM
- GI50 (MOLT-4 leukemia): 3.22 µM and 1.94 µM and 2.98 µM
- TGI (MOLT-4 leukemia): 8.37 µM and 5.92 µM and 8.57 µM
- GI50 (786-0 renal): 1.73 µM and 1.72 µM
- TGI (786-0 renal): 3.13 µM and 3.19 µM and 3.35 µM
- GI50 (COLO 205 colon): 1.78 µM and 1.8 µM
- TGI (COLO 205 colon): 3.28 µM and 3.31 µM and 3.44 µM
- GI50 (HT29 colon): 1.71 µM and 1.55 µM
- TGI (HT29 colon): 3.39 µM and 2.92 µM and 3.46 µM
- GI50 (T-47D breast): 1.3 µM and 1.21 µM and 1.25 µM
- TGI (T-47D breast): 3.83 µM and 3.43 µM and 4.01 µM
- GI50 (SF-539 CNS): 1.74 µM and 1.7 µM and 1.59 µM
- TGI (SF-539 CNS): 3.15 µM and 3.09 µM and 3.01 µM

SMILES: CSC(=S)NN=C1CCCCC1
- TGI (CCRF-CEM leukemia): 87.8 µM
- TGI (HOP-92 NSCLC): > 100 µM
- TGI (SF-295 CNS): > 100 µM
- TGI (NCI-H460 lung): > 100 µM
- TGI (MOLT-4 leukemia): 40.8 µM
- TGI (786-0 renal): > 100 µM
- TGI (COLO 205 colon): > 100 µM
- TGI (HT29 colon): > 100 µM
- TGI (T-47D breast): > 100 µM
- TGI (SF-539 CNS): 67.7 µM

SMILES: CC(=O)N1c2ccccc2C23CCN4CC5=CCOC(O)C(C5CC42)C13 (centres undefined)
- TGI (CCRF-CEM leukemia): > 100 µM
- TGI (HOP-92 NSCLC): > 100 µM
- TGI (SF-295 CNS): > 100 µM
- TGI (NCI-H460 lung): > 100 µM
- TGI (MOLT-4 leukemia): > 100 µM
- TGI (786-0 renal): > 100 µM
- TGI (COLO 205 colon): > 100 µM
- TGI (HT29 colon): > 100 µM
- TGI (T-47D breast): > 100 µM
- TGI (SF-539 CNS): > 100 µM
